Results: PMC7822874, “Chemoprotective antimalarials identified through quantitative high-throughput screening of Plasmodium blood and liver stage parasites” (Scientific Reports, 2021)
Like-named read-outs stand apart in the source and are kept apart here.

Columns and labels:
Format in all cases: cell-based, Plasmodium falciparum
[1] = tested on: P. falciparum Dd2 (clone B2) asexual blood stage parasites; assay: P. falciparum Dd2 asexual blood stage SYBR Green-I 72 h proliferation assay (qHTS)
[2] = tested on: P. falciparum Dd2 Cytb G131S; assay: SYBR Green ABS proliferation assay, NCGC00374598 selected clone C11
Outline: (§1)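 Drug-selected Dd2 clones bearing the cytochrome b mutation were cultured at 37 °C under 5% CO2, 5% O2, 90% N2. Growth was read at 72 h by SYBR Green-I fluorescence, normalized to controls as percent response.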

[3] = tested on: P. falciparum Dd2 Cytb V259L; assay: SYBR Green ABS proliferation assay, NCGC00473217 selected clone F06
Outline: as §1

[4] = tested on: P. falciparum Dd2 Cytb A122D; assay: SYBR Green ABS proliferation assay, NCGC00473217 selected clone F12
Outline: as §1

[5] = tested on: P. falciparum Dd2 Cytb F123L; assay: SYBR Green ABS proliferation assay, NCGC00473217 selected clone G08
Outline: as §1

[6] = tested on: P. falciparum Dd2 cytochrome b mutant lines; assay: Drug response of drug-selected cytochrome b mutant lines versus parental Dd2-B2 (panel); details: all cytochrome b mutant lines vs Dd2-B2
Experimental: As resistance selection studies implicated the parasite cytochrome bc1 complex in mediating reduced parasite susceptibility to both NCGC00473217 and NCGC00374598, we leveraged these drug-selected parasites to test for altered drug response to a panel of antimalarial compounds.
The P. falciparum parasite Dd2 line was cultured in vitro using standard conditions. […] Tissue culture flasks and assay plates were incubated at 37 °C under a gas mixture of 5% CO2, 5% O2 and 90% N2. […] Significant differences were assessed using two-sided Student’s t-tests. All HTS assays were stopped and read at 72 h. Percent response values represent relative growth as judged by SYBR Green-I fluorescence intensity values normalized to controls.

[7] = Plasmodium falciparum, DD2, 72 h, SYBR Green 72 h, WT Dd2-B2, read-out: AC50 Log[M] ± SD, Dd2-B2 (parental line) (converted)
[8] = Plasmodium falciparum, DD2, Suppl Table 6, read-out: AC50 (mM), WT (Dd2-B2)
[9] = Plasmodium falciparum, DD2, NCGC00374598 selected clone, read-out: AC50 Log[M] ± SD, Cytb G131S (converted)
[10] = Plasmodium falciparum, DD2, Suppl Table 6, read-out: AC50 (mM), Dd2 Cytb G131S
[11] = Plasmodium falciparum, DD2, NCGC00473217 selected clone, read-out: AC50 Log[M] ± SD, Cytb V259L (converted)
[12] = Plasmodium falciparum, DD2, Suppl Table 6, read-out: AC50 (mM), Dd2 Cytb V259L
[13] = Plasmodium falciparum, DD2, NCGC00473217 selected clone, read-out: AC50 Log[M] ± SD, Cytb A122D (converted)
[14] = Plasmodium falciparum, DD2, Suppl Table 6, read-out: AC50 (mM), Dd2 Cytb A122D
[15] = Plasmodium falciparum, DD2, NCGC00473217 selected clone, read-out: AC50 Log[M] ± SD, Cytb F123L (converted)
[16] = Plasmodium falciparum, DD2, Suppl Table 6, read-out: AC50 (mM), Dd2 Cytb F123L

Compound	AC50 [1, 7] [M]	AC50 [1, 8] [M]	AC50 [2, 9] [M]	AC50 [2, 10] [M]	AC50 [3, 11] [M]	AC50 [3, 12] [M]	AC50 [4, 13] [M]	AC50 [4, 14] [M]	AC50 [5, 15] [M]	AC50 [5, 16] [M]	change in susceptibility across drug-selected lines [6]	other results
CO[C@H]1O[C@@H]2O[C@@]3(C)CC[C@H]4[C@H](C)CC[C@@H]([C@H]1C)[C@@]24OO3 [Artemether, artemether, reference compound]	5.13e-08	5.11e-08	3.24e-08	3.22e-08	6.61e-08	6.68e-08	6.61e-08	6.68e-08	3.63e-08	3.61e-08	no observed change in susceptibility	
COc1cc2[nH]c(C)c(-c3ccc(Oc4ccc(OC(F)(F)F)cc4)cc3)c(=O)c2cc1Cl [ELQ-300, reference compound]											no observed change in susceptibility	AC50 Log[M] ± SD, Dd2-B2 (parental line) ([1]; SYBR Green 72 h, WT Dd2-B2): -7.13 Log[M]; AC50 ([1]; Suppl Table 6, read-out: AC50 (mM), WT (Dd2-B2)): 7.5e-08 M; AC50 Log[M] ± SD, Cytb G131S ([2]; NCGC00374598 selected clone): -7.16 Log[M]; AC50 ([2]; Suppl Table 6, read-out: AC50 (mM), Dd2 Cytb G131S): 6.93e-08 M; AC50 Log[M] ± SD, Cytb V259L ([3]; NCGC00473217 selected clone): -7.06 Log[M]; AC50 ([3]; Suppl Table 6, read-out: AC50 (mM), Dd2 Cytb V259L): 8.73e-08 M; AC50 Log[M] ± SD, Cytb A122D ([4]; NCGC00473217 selected clone): -7.39 Log[M]; AC50 ([4]; Suppl Table 6, read-out: AC50 (mM), Dd2 Cytb A122D): 4.06e-08 M; AC50 Log[M] ± SD, Cytb F123L ([5]; NCGC00473217 selected clone): -7.68 Log[M]; AC50 ([5]; Suppl Table 6, read-out: AC50 (mM), Dd2 Cytb F123L): 2.11e-08 M
OC(c1cc(C(F)(F)F)nc2c(C(F)(F)F)cccc12)C1CCCCN1 (stereo not drawn) [Mefloquine, mefloquine, reference compound]	7.76e-08	7.78e-08	8.32e-08	8.41e-08	1.23e-07	1.23e-07	1.29e-07	1.28e-07	9.77e-08	9.79e-08	no observed change in susceptibility	
